Results: US20160304957A1, “TREATMENT AND MODULATION OF GENE EXPRESSION AND SKIN AGING” (DSM NUTRITIONAL PRODUCTS LTD., priority 2006, published 2016)

System: HaCaT human keratinocytes
Experiment: Affymetrix GeneChip microarray, transcriptional response to β-carotene and/or UVA
Assay type: cell-based
Details: UVA and β-carotene 1.5 μM
Experimental: The cell culture experiments were carried out as described. Briefly, a subclone of passage 65 HaCaT keratinocytes, selected for differentiation capacity, was used at passages 16 to 23 after subcloning. 2×10^5 cells were seeded per 60 millimeter dish. Starting the following day, the cells were pretreated for 2 days with β-carotene at 1.5 μM, a typical concentration in human plasma after moderate dietary supplementation)
β-carotene-containing medium was prepared as follows. Fresh all-E-β-carotene (DSM Nutritional Products, Kaiseraugst, Switzerland) stock solution in THF (containing 0.025% BHT; Fluka Chemie A G, Switzerland) was diluted 1:2 with ethanol and added to cell culture medium to a final concentration of 1.5 μM β-carotene. The solvent concentration in the medium was 0.5% for all treatments. β-carotene-containing medium was prepared fresh for the daily medium changes.
On day 3 of the experiment, the cells were irradiated with a Hönle sun lamp Sol 500 (270 kJ/m^2; Dr. Hönle, Germany).
Five independent, factorially designed cell irradiation experiments were analyzed by microarray hybridization. For each experiment, one chip was hybridized per treatment condition. GeneChip® analysis was done as described in [132], which is incorporated by reference, as if recited in full herein. Gene regulation by β-carotene and/or UVA was calculated relative to placebo.
Changes in gene expression were included in further analysis only if the change factor was […], and if unpaired t-tests yielded p values≦0.05. Upregulations by a […] are labeled bold, downregulations by a change factor of […] are labeled bold italics. (Table 1) To identify the pathways affected by the treatments functional information on the genes was retrieved from public literature databases.

Compound: CC1=C(/C=C/C(C)=C/C=C/C(C)=C/C=C/C=C(C)/C=C/C=C(C)/C=C/C2=C(C)CCCC2(C)C)C(C)(C)CCC1 [β-carotene, All-E-β-carotene]
- 5-aminolevulinate synthase (Y00451) change factor: 0.41
- AAC11 (U83857) change factor: −0.05
- AP-2α (M36711) change factor: −0.67
- ATF4; activating transcription factor 4 (AL022312) change factor: 0.96
- BAXγ (L22475) change factor: −0.34
- BAXδ (U19599) change factor: 0.67
- BMP2a; bone morphogenetic protein 2a (bmp-2a) (M22489) change factor: 0.16
- BPAG1; bullous pemphigoid antigen (M69225) change factor: 0.12
- BUB1; mitotic checkpoint kinase (AF053305) change factor: −0.81
- C-FOS (V01512) change factor: 2.49
- C-FOS (V01512, second entry) change factor: 1.36
- C-JUN (J04111) change factor: 0.93
- C/EBPβ; NF-IL6 (X52560) change factor: 0.83
- C/EBPγ (U20240) change factor: 0.71
- C/EBPδ; NF-IL6-β (M83667) change factor: 0.31
- CDK activating kinase (X77743) change factor: 0.57
- CDK-inhibitor p57KIP2 (KIP2) mrna (U22398) change factor: 0.79
- CENP-A; centromere protein-A (U14518) change factor: −1.82
- CENP-E; centromere protein-E (Z15005) change factor: −1.44
- CENP-F; mitosin (U30872) change factor: −1.22
- CEP110; centriole associated protein (AF083322) change factor: −4.18
- CIP2; CDKN3 (L25876) change factor: −0.81
- CLARP; CFLAR, alternatively spliced (AF005775) change factor: −0.62
- COUP-TF II; ARP1; apoA1 regulatory protein (M64497) change factor: 0.81
- COX-2, cyclooxygenase-2 (U04636) change factor: 0.2
- CRADD; death domain containing protein (U84388) change factor: −0.87
- DKK-1; dickkopf-1 (AB020315) change factor: 1.4
- DNA ligase III (X84740) change factor: −0.71
- DNA polymerase α-subunit (X06745) change factor: −0.63
- DNA primase (subunit p58) (X74331) change factor: −0.41
- DNA-PK, catalytic subunit (U47077) change factor: −1.06
- DSC2; desmocollin type 2a and 2b (X56807) change factor: −0.29
- DUSP5 (U15932) change factor: 2.84
- DUSP7 (X93921) change factor: 0.99
- EGFR; precursor of epidermal growth factor receptor (X00588) change factor: −0.69
- ENDOGL-2 (AB020735) change factor: 0.41
- ERBB3 precursor; similar to (H06628) change factor: −0.78
- ERCC5; excision repair protein (L20046) change factor: −0.95
- ERF-2 (X78992) change factor: 0.99
- FGFR2; FGF receptor 2 (M87770) change factor: −0.48
- FGFR3; FGF receptor (M64347) change factor: −2.58
- FRA-1 (X16707) change factor: 0.71
- FRA-2 (X16706) change factor: −0.13
- GADD34 (U83981) change factor: 2.62
- GADD153 (S62138) change factor: 7.64
- GDF-1; growth/differentiation factor 1 (gdf-1) (M62302) change factor: −0.43
- GEM (U10550) change factor: 3.91
- HB-EGF; heparin-binding egf-like growth factor (M60278) change factor: 3.32
- HER3; epidermal growth factor receptor (her3) (M34309) change factor: −1.12
- HER3; epidermal growth factor receptor (her3) (M34309, second entry) change factor: −1.56
- HM74; PAR1-related (D10923) change factor: −0.55
- HOXA7 (AJj005814) change factor: −0.52
- HOXC6 (S82986) change factor: −0.82
- HOXD4 (X59373) change factor: −0.76
- ID1 (X77956) change factor: −2.43
- ID1 (X77956, second entry) change factor: −4.7
- ID3; HEIR1 (AL021154) change factor: −4.35
- ID-2H (D13891) change factor: −2.68
- ID-4 (AL022726) change factor: −0.49
- IEX-1 (S81914) change factor: 0.91
- IFIT1; IFI56 (M24594) change factor: −0.61
- IFIT1; IFI56 (M24594, second entry) change factor: −0.71
- IFIT2; ISG-54K (M14660) change factor: 1.17
- IFIT2; ISG-54K (M14660, second entry) change factor: 0.58
- IFIT4; IFI60; cig5; RIGG (AF026941) change factor: 5.46
- IGF-BP 3; insulin-like growth factor-binding protein-3 gene (M35878) change factor: 1.64
- IGF-BP 3; insulin-like growth factor-binding protein-3 gene (M35878, second entry) change factor: 1.73
- IL6; Interleukin 6; IFNβα2a (X04430) change factor: 2.29
- IL18; IGIF (IFNγ inducing factor) (D49950) change factor: −0.18
- ILK; integrin-linked kinase (U40282) change factor: −0.51
- IRF-1; interferon regulatory factor 1 (L05072) change factor: 0.29
- IRF-7b; interferon regulatory factor 7b (U53831) change factor: 0.49
- IRF-9; p48; ISGF3γ (M97935) change factor: −0.67
- JUNB (M29039) change factor: −0.72
- JUNB (X51345) change factor: −0.7
- JUND (X56681) change factor: 3.2
- JUND (X56681, second entry) change factor: 1.83
- JUND (X56681, third entry) change factor: 1.66
- K-RAS (M54968) change factor: −0.64
- KINESIN-LIKE 2; HSET (AL021366) change factor: −0.72
- KINESIN-LIKE 2; HSET (D14678) change factor: −0.72
- KINESIN-LIKE 2; HSET (D14678, second entry) change factor: −1.15
- KINESIN-LIKE 5; KNSL5; MKLP-1; mitotic kinesin-like protein-1 (X67155) change factor: −1.04
- KINESIN-LIKE 6; KNSL6; MCAK; mitotic centromere-associated kinesin (U63743) change factor: −1.61
- KINESIN_LIKE 1; KNSL1; HKSP; EG5 (U37426) change factor: −0.92
- KLF4; EZF (epithelial Zn finger) (U70663) change factor: 3.46
- KRS-2; stress responsive serine/threonine protein kinase (U60207) change factor: −0.35
- KU (p70/p80) (M30938) change factor: −0.64
- LIM kinase 2 (limk-2) (D45906) change factor: −0.66
- Lekti (AJ228139) change factor: 0.75
- MAD3L; mitotic checkpoint kinase (AF053306) change factor: −2.45
- MAF-F (AL021977) change factor: 1.71
- MAP kinase phosphatase (mkp-2) (U48807) change factor: 1.12
- MAPK9; JNK2 (U09759) change factor: −0.57
- MAPK14; p38; csaids binding protein (csbp1) (L35263) change factor: −0.53
- MAPKK3b; MKK3b (D87116) change factor: 0.62
- MAPKK MEK5b (U71087) change factor: −0.7
- MAPKKK5; ASK1 (U67156) change factor: −4.7
- MEIS2 (AF017418) change factor: −1.3
- MMP10 (X07820) change factor: 2.2
- MMP-1 (M13509) change factor: −0.22
- MMP-3 (X05232) change factor: 0.93
- N-RAS (X02751) change factor: −0.01
